In US20140303105A1, “Primycin and components thereof for use in the treatment or prevention of infections caused by specific pathogens” (PANNONPHARMA GYÓGYSZERGYÁRTÓ ZRT., priority 2011, published 2014):
Values after ≈ are worked out from the molar mass of the structure shown.

Assays:
Test in all cases: Standard microdilution susceptibility test, clinical isolates
Assay type in all cases: cell-based
[1] = system: Staphylococcus aureus, methicillin susceptible; settings: 10 clinical isolates
[2] = system: Streptococcus viridans sp.; settings: 20 clinical isolates
[3] = system: Coagulase-negative Staphylococus sp., methicillin susceptible; settings: 10 clinical isolates
[4] = system: Staphylococcus aureus, methicillin resistant; settings: 10 clinical isolates
[5] = system: Coagulase-negative Staphylococus sp., methicillin resistant; settings: 10 clinical isolates
[6] = system: Streptococcus pneumoniae, penicillin susceptible; settings: for MIC: single isolate
[7] = system: Enterococcus sp., decreased vancomycin susceptibility; settings: 5 clinical isolates
[8] = system: Streptococcus pneumoniae, penicillin resistant
[9] = system: Enterococcus sp., vancomycin susceptible; settings: 20 clinical isolates
[10] = Staphylococcus aureus, read-out: MIC 50%
[11] = Staphylococcus aureus, read-out: MIC 90%
[12] = Streptococcus pneumoniae, 10 clinical isolates, read-out: MIC 50%
[13] = Streptococcus pneumoniae, 10 clinical isolates, read-out: MIC 90%

| Molecule | MIC Range [1] [µg/mL] | Ratio of Sensitive/Total [1] | Ratio of Sensitive/Total [2] | MIC Range [3] [µg/mL] | Ratio of Sensitive/Total [3] | Ratio of Sensitive/Total [4] | Ratio of Sensitive/Total [5] | MIC Range ([6]; 10 clinical isolates) [µg/mL] | Ratio of Sensitive/Total ([6]; 10 clinical isolates) | Ratio of Sensitive/Total [7] | Ratio of Sensitive/Total ([8]; 10 clinical isolates) | Ratio of Sensitive/Total [9] | MIC 50% [1] [µg/mL] | MIC 90% [1] [µg/mL] | MIC 50% [2] [µg/mL] | MIC 90% [2] [µg/mL] | MIC 50% [3] [µg/mL] | MIC 90% [3] [µg/mL] | MIC 50% [4] [µg/mL] | MIC 90% [4] [µg/mL] | also measured |
| --- | --- | --- | --- | --- | --- | --- | --- | --- | --- | --- | --- | --- | --- | --- | --- | --- | --- | --- | --- | --- | --- |
| NC[C@H]1O[C@H](O[C@H]2[C@H](O)[C@@H](O[C@H]3O[C@H](CO)[C@@H](O)[C@H](N)[C@H]3O)[C@H](N)C[C@@H]2N)[C@H](N)C[C@@H]1O [Tobramycin] | 0.5 to 1 | 10/10 | 1/20 | 0.06 to 4 | 10/10 | 6/10 | 5/10 | 16 to 32 | 0/10 | 0/5 | 0/10 | 0/20 |  |  |  |  |  |  |  |  | MIC50 [1, 10]: 0.5 µg/mL (≈ 1.07 µM); MIC90 [1, 11]: 0.5 µg/mL (≈ 1.07 µM); MIC Range [2]: 4 to 32 µg/mL; MIC50 ([2]; Streptococcus viridans, read-out: MIC 50%): 16 µg/mL (≈ 34.2 µM); MIC90 ([2]; Streptococcus viridans, read-out: MIC 90%): 32 µg/mL (≈ 68.4 µM); MIC50 ([3]; read-out: MIC 50%): 0.06 µg/mL (≈ 0.128 µM); MIC90 ([3]; read-out: MIC 90%): 4 µg/mL (≈ 8.56 µM); MIC50 [4, 10]: 1 µg/mL (≈ 2.14 µM); MIC90 [4, 11]: > 32 µg/mL; MIC50 ([5]; read-out: MIC 50%): 0.06 µg/mL (≈ 0.128 µM); MIC90 ([5]; read-out: MIC 90%): > 32 µg/mL; MIC50 [6, 12]: 16 µg/mL (≈ 34.2 µM); MIC90 [6, 13]: 32 µg/mL (≈ 68.4 µM); MIC50 [8, 12]: 32 µg/mL (≈ 68.4 µM); MIC90 [8, 13]: > 32 µg/mL; MIC50 ([9]; Enterococcus, read-out: MIC 50%): 16 µg/mL (≈ 34.2 µM); MIC90 ([9]; Enterococcus, read-out: MIC 90%): > 32 µg/mL |
| Gentamicin | 0.25 to 0.5 | 10/10 | 9/20 | 0.03 to 8 | 9/10 | 10/10 | 6/10 | 8 to 16 | 0/10 | 0/5 | 0/10 | 1/20 | 0.5 | 0.5 | 8 | 16 | 0.125 | 4 | 0.5 | 0.5 | MIC Range [4]: 0.25 to 1 µg/mL; MIC 50% [5]: 0.125 µg/mL; MIC 90% [5]: >16 µg/mL; MIC 50% ([6]; 10 clinical isolates): 16 µg/mL; MIC 90% ([6]; 10 clinical isolates): 16 µg/mL; MIC Range [7]: 8 to 16 µg/mL; MIC 50% ([8]; 10 clinical isolates): 16 µg/mL; MIC 90% ([8]; 10 clinical isolates): >16 µg/mL; MIC 50% [9]: 8 µg/mL; MIC 90% [9]: >16 µg/mL |
| Neomycin | 0.5 to 2 | 10/10 | 0/20 | 0.06 to 4 | 10/10 | 5/10 | 8/10 |  | 0/10 | 0/5 | 0/10 | 0/20 | 1 | 2 | >32 | >32 | 0.25 | 1 | 1 | >32 | MIC 50% [5]: 0.25 µg/mL; MIC 90% [5]: 16 µg/mL; MIC 50% ([6]; 10 clinical isolates): >32 µg/mL; MIC 90% ([6]; 10 clinical isolates): >32 µg/mL; MIC 50% ([8]; 10 clinical isolates): >32 µg/mL; MIC 90% ([8]; 10 clinical isolates): >32 µg/mL; MIC 50% [9]: >32 µg/mL; MIC 90% [9]: >32 µg/mL |
| Penicillin |  |  |  |  |  |  |  |  |  |  |  |  |  |  |  |  |  |  |  |  | MIC ([6]; serotype 3): 0.015 µg/mL; MIC ([6]; serotype 4): 0.015 µg/mL; MIC ([6]; serotype 7F): 0.015 µg/mL; MIC ([6]; serotype 8): 0.015 µg/mL; MIC ([6]; serotype 9(V)): 0.03 µg/mL; MIC ([6]; serotype 11(A)): 0.06 µg/mL; MIC ([6]; serotype 19F): 0.03 µg/mL; MIC ([6]; serotype 23(F)): 0.015 µg/mL; MIC ([8]; single isolate, serotype 23(F)): 2 µg/mL |
